Like-named read-outs stand apart in the source and are kept apart here.

Test [1] has as its target T1, full-length androgen receptor (Homo sapiens, UniProt P10275).
T1 construct: HEK293 cells stably expressing the full-length androgen receptor; expressed in transfected cells
T1 sequence (P10275 1-920): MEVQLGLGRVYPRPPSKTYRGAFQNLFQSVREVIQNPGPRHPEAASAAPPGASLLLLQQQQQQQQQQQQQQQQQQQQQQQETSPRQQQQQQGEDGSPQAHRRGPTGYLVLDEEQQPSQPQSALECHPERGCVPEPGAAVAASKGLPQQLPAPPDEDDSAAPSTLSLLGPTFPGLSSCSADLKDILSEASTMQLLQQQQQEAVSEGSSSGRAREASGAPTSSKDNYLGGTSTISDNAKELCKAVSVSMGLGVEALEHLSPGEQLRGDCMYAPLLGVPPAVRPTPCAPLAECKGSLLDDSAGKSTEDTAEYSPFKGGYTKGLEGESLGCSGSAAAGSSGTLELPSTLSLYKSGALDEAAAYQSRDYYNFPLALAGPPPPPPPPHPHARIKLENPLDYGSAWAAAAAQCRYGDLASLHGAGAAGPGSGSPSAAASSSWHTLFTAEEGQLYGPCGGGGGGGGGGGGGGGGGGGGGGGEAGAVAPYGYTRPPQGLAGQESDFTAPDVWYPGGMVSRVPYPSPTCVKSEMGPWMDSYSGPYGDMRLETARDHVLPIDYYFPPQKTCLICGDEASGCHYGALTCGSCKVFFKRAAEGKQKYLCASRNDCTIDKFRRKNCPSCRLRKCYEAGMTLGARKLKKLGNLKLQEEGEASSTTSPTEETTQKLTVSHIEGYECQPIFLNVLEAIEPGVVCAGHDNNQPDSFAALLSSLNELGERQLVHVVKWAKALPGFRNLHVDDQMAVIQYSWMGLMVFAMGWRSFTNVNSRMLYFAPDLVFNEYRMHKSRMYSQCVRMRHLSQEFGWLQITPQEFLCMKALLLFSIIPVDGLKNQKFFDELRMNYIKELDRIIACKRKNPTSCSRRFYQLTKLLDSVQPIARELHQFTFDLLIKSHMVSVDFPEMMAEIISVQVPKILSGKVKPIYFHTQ
The experiment in a line: AR antagonism assay (HEK293, testosterone 1 nM, Steady-glo). The test is classed as cell-based. The procedure:
AR antagonism assay: To evaluate AR antagonist activity, test compound was added to the assay plate (top dose 10 μM, 3 fold serial dilution, 10 point dose response). HEK293 cells stably expressing the full-length androgen receptor were seeded at a density of 20000 cells/well in the assay plate. The assay plate was then incubated at room temperature for 10 minutes and at 37° C., 5% CO2 for 20 minutes. Testosterone was added to the assay plate at 1 nM final concentration and the assay plate was incubated at 37° C., 5% CO2 for 20 h. After the incubation period, Steady-glo was added to the assay plate and mixed at room temperature for 20 minutes on an orbital shaker, before reading out on the EnVision plate reader.

A further test addresses Human recombinant PARP1 (Homo sapiens, UniProt P09874). The experiment in a line: RBC HotSpot PARP1 assay (radioisotope-based filter binding). It counts as biochemical. The procedure:
The following methods are for evaluating the in vitro biology properties of the test articles. • a. RBC HotSpot Poly(ADP-ribose) Polymerases 1 (PARP1) and Poly(ADP-ribose) Polymerases 2 (PARP2) Assays: The assay was conducted at Reaction Biology Corporation (RBC; Malvern, PA). The assay principle is radioisotope-based filter binding assay where incorporation of radioisotope-labeled NAD^+ into the substrate captured on filter is detected after washout free NAD^+. Data were analyzed using Excel and GraphPad Prism software for IC50 curve fits. Each assay was conducted with PJ34 as a positive control. PARP1 assay: Human recombinant PARP1 at a final concentration of 2.5 nM was combined with histone H4 (20 μM) and test articles at various concentrations in reaction buffer (50 mM Tris-HCL, pH 8.0, 50 mM NaCl, 10 mM MgCl2, 1 mM DTT, 1% DMSO, and 20 μg/mL activated DNA). The solution was inoculated for 20 min at room temperature and the reaction initiated by adding [adenylate-^32P]-Nicotinamide Adenine Dinucleotide, ^32P-NAD^+ at a final concentration of 10 μM. After incubation for 2 hrs at room temperature, the reaction mixture was filtered and washed with 0.75% phosphoric acid for radioactivity detection. • ii. PARP2 assay: Human recombinant PARP2 at a final concentration of 2.5 nM was combined with histone H3 (20 μM) and test articles at various concentrations in reaction buffer (50 mM Tris-HCL, pH 8.0, 50 mM NaCl, 10 mM MgCl2, 1 mM DTT, 1% DMSO, and 20 μg/mL activated DNA). The solution was inoculated for 20 min at room temperature and the reaction was initiated by adding [adenylate-^32P]-Nicotinamide Adenine Dinucleotide, ^32P-NAD^+ at a final concentration of 10 μM. After incubation for 2 hrs at room temperature, the reaction mixture was filtered and washed with 0.75% phosphoric acid for radioactivity detection. • b. AR binding assay: AR in LNCaP cytosol was used for determining the binding affinity of test articles and the reference compound—progesterone (Sigma, Cat: E2785, St. Louis, MO). IC50 s were determined using 8 concentrations/compound. Cytosol is plated at 200 μg/well (100 μL) into a 96-well conical polypropylene plate (Agilent, Cat: 5042-1385, Santa Clara, CA) and mixed with 3 μL of test compound. After adding 100 μL of ^3H-methyltrienolone (PerkinElmer, Cat: NET590250UC, San Jose, CA), the plate was sealed and shaken at 300 rpm at 4° C. for 24 hours. Post incubation, 100 μL of radioligand adsorption buffer containing 10 mM Tris-HCl, pH 7.4; 1.5 mM EDTA; 1 mM DTT; 0.25% charcoal; 0.0025% dextran was added to individual wells. Plate was shaken for 15 min at 4° C. followed by centrifugation at 3000 rpm for 30 min at 4° C. 150 μL of supernatant is transferred into scint-tube (PerkinElmer, Cat: 6000192) and mixed with 2 mL of Ultima Gold Cocktail (PerkinElmer, Cat: 6013329). Radioactivity is counted using a TriCarb 2910 TR scintillation counter (PerkinElmer). Inhibition of the radioactivity by test articles was calculated using the equation below: % Inhibition=(1−(Assay well−Average_LC)/(Average_HC−Average_LC))×100%. • IC50 values (Table 6) were calculated and graphed using the model “log(inhibitor) vs. response—Variable slope” included in GraphPad Prism 5 (San Diego, CA). The Ki values were further calculated using the equation below where [L] is the radioligand concentration (1 nM) used in this study. Kd value was 0.332 nM. Ki=IC50/(1+[L]/Kd) • c. AR transactivation: Human AR cloned into a CMV vector backbone is used for the transactivation study. HEK-293 cells are plated at 80,000 cells per well of a 24 well plate in DME+5% csFBS. Twenty four hours later, the cells are transfected using Lipofectamine (Invitrogen, Carlsbad, CA) with 0.25 μg GRE-LUC, 0.01 μg CMV-LUC (renilla luciferase) and 25 ng of the AR in OPTIMEM medium. The cells are treated 24 hrs after transfection with various ligands (10^−12 to 10^−5 M final concentrations) and luciferase assay performed 48 hours after transfection. […]

The mark [2] stands for this setting: Table 8, testosterone 1 nM, read-out: AR antagonism.
Where [3] appears, read: Table 7, testosterone 1 nM, read-out: AR antagonism.

Chain of Human recombinant PARP1 (P09874 whole entry): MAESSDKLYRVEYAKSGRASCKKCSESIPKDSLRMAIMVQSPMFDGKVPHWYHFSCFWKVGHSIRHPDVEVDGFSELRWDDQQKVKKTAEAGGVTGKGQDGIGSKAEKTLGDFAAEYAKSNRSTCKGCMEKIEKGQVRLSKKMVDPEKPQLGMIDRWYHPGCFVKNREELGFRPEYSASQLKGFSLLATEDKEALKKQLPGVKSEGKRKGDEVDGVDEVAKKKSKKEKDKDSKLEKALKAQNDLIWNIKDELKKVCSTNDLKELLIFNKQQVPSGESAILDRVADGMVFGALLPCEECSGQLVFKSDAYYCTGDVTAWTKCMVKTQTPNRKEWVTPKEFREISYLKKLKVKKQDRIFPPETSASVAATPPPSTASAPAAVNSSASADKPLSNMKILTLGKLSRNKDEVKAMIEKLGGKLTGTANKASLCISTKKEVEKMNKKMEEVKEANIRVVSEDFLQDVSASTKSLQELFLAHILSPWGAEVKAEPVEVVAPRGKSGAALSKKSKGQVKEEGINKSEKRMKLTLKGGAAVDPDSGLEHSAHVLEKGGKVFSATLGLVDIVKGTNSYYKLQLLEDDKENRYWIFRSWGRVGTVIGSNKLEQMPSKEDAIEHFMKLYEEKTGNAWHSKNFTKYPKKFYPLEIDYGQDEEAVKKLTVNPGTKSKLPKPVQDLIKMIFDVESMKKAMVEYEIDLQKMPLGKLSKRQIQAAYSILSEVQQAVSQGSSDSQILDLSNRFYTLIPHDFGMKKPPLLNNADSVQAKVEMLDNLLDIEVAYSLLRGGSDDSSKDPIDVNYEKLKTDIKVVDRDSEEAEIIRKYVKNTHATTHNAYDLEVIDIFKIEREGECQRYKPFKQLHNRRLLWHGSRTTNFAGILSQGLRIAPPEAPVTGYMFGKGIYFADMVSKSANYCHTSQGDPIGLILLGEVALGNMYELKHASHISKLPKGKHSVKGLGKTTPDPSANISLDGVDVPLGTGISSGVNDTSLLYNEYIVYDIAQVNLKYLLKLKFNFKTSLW

As to `C[C@@]12CCC(=O)C[C@H]1CC[C@H]1[C@H]2CC[C@]2(C)[C@@H]1CC[C@H]2OCCCCCCNC(=O)c1cc(Cc2n[nH]c(=O)c3ccccc23)ccc1F` (stereo in doubt) [Compound 1426, N-(6-((5R,8S,9R,10R,13R,14R,17R)-10,13-dimethyl-3-oxohexadecahydro-1H-cyclopenta[a]phenanthren-17-yloxy)hexyl)-2-fluoro-5-((4-oxo-3,4-dihydrophthalazin-1-yl)methyl)benzamide], the IC50 is 0.1 to 1 µM in test [1] and more than 0.1 µM at Human recombinant PARP1 (Table 9, read-out: PARP1).

On to `CC#C[C@]1(O)CC[C@H]2[C@@H]3CCC4=CC(=O)CCC4=C3[C@@H](c3ccc(N(C)CCCCCC(=O)N4CCN(C(=O)c5cc(Cc6n[nH]c(=O)c7ccccc67)ccc5F)CC4)cc3)C[C@@]21C` [Compound 135, 4-(4-fluoro-3-(4-(6-((4-((8S,11R,13S,14S,17S)-17-hydroxy-13-methyl-3-oxo-17-(prop-1-ynyl)-2,3,6,7,8,11,12,13,14,15,16,17-dodecahydro-1H-cyclopenta[a]phenanthren-11-yl)phenyl)(methyl)amino)hexanoyl)piperazine-1-carbonyl)benzyl)phthalazin-1(2H)-one], for which the IC50 fell in the range of 0.1 to 1 µM in test [1] (setting [2]) and 0.001 to 0.01 µM on Human recombinant PARP1 (Table 9, read-out: PARP1).

With `C[C@]12C[C@H](CCCCCC(=O)N3CCN(C(=O)c4cc(Cc5n[nH]c(=O)c6ccccc56)ccc4F)CC3)C3=C4CCC(=O)C=C4CC[C@H]3[C@@H]1CCC2O` (stereo partly drawn) [Compound 138, 4-(4-fluoro-3-(4-(6-((8S,11S,13S,14S)-17-hydroxy-13-methyl-3-oxo-2,3,6,7,8,11,12,13,14,15,16,17-dodecahydro-1H-cyclopenta[a]phenanthren-11-yl)hexanoyl)piperazine-1-carbonyl)benzyl)phthalazin-1(2H)-one], the IC50 in test [1] is 0.1 to 1 µM; at Human recombinant PARP1 (Table 9, read-out: PARP1), less than 0.001 µM.

Take `Cn1ncnc1C1c2n[nH]c(=O)c3cc(F)cc(c23)N[C@@H]1c1ccc(NC(=O)CCCCCO[C@@H]2CC[C@H]3[C@@H]4CC[C@H]5CCCC[C@]5(C)[C@H]4CC[C@]23C)cc1` (stereo partly drawn) [Compound 1128, 6-((5R,8R,9S,10S,13S,14S,17R)-10,13-dimethylhexadecahydro-1H-cyclopenta[a]phenanthren-17-yloxy)-N-(4-((8S)-5-fluoro-9-(1-methyl-1H-1,2,4-triazol-5-yl)-3-oxo-3,7,8,9-tetrahydro-2H-pyrido[4,3,2-de]phthalazin-8-yl)phenyl)hexanamide]: the IC50 in test [1] (setting [3]) was 1 to 10 µM; on Human recombinant PARP1 (Table 5, in vitro results, read-out: PARP1 IC50), 0.252 µM.

Take `CC(=O)O[C@]1(C(C)=O)CC[C@H]2[C@@H]3CCC4=CC(=O)CCC4=C3[C@@H](c3ccc(N(C)CCCCCC(=O)N4CCN(C(=O)c5cc(Cc6n[nH]c(=O)c7ccccc67)ccc5F)CC4)cc3)C[C@@]21C` [Compound 1378, (8S,11R,13S,14S,17R)-17-acetyl-11-(4-((6-(4-(2-fluoro-5-((4-oxo-3,4-dihydrophthalazin-1-yl)methyl)benzoyl)piperazin-1-yl)-6-oxohexyl)(methyl)amino)phenyl)-13-methyl-3-oxo-2,3,6,7,8,11,12,13,14,15,16,17-dodecahydro-1H-cyclopenta[a]phenanthren-17-yl acetate]: the IC50 in test [1] (setting [2]) fell in the range of 0.1 to 1 µM; on Human recombinant PARP1 (Table 9, read-out: PARP1), 0.001 to 0.01 µM.

On to `CC(=O)O[C@]1(C(C)=O)CC[C@H]2[C@@H]3CCC4=CC(=O)CCC4=C3[C@@H](c3ccc(N(C)CCCCCC(=O)NCCOCCOCC(=O)N4CCN(C(=O)c5cc(Cc6n[nH]c(=O)c7ccccc67)ccc5F)CC4)cc3)C[C@@]21C` [Compound 1384, (8S,11R,13S,14S,17R)-17-acetyl-11-(4-((6-(2-(2-(2-(4-(2-fluoro-5-((4-oxo-3,4-dihydrophthalazin-1-yl)methyl)benzoyl)piperazin-1-yl)-2-oxoethoxy)ethoxy)ethylamino)-6-oxohexyl)(methyl)amino)phenyl)-13-methyl-3-oxo-2,3,6,7,8,11,12,13,14,15,16,17-dodecahydro-1H-cyclopenta[a]phenanthren-17-yl acetate], for which the IC50 was more than 10 µM in test [1] (setting [2]) and 0.001 to 0.01 µM at Human recombinant PARP1 (Table 9, read-out: PARP1).

For the molecule `C[C@]12CC[C@H]3[C@@H](CCC4=CC(=O)CC[C@@]43C)[C@@H]1CC[C@@H]2C(=O)COCCCCCC(=O)N1CCN(C(=O)c2cc(Cc3n[nH]c(=O)c4ccccc34)ccc2F)CC1` [Compound 1386, 4-(3-(4-(6-(2-((8S,9S,10R,13S,14S,17S)-10,13-dimethyl-3-oxo-2,3,6,7,8,9,10,11,12,13,14,15,16,17-tetradecahydro-1H-cyclopenta[a]phenanthren-17-yl)-2-oxoethoxy)hexanoyl)piperazine-1-carbonyl)-4-fluorobenzyl)phthalazin-1(2H)-one], the IC50 in test [1] (setting [2]) is 0.1 to 1 µM; on Human recombinant PARP1 (Table 9, read-out: PARP1), 0.001 to 0.01 µM.

On to `C[C@]12Cc3cn[nH]c3C[C@@H]1CC[C@@H]1[C@@H]2CC[C@]2(C)[C@@H](OCCCCCC(=O)N3CCN(C(=O)c4cc(Cc5n[nH]c(=O)c6ccccc56)ccc4F)CC3)CC[C@@H]12` [Compound 1394, 4-(3-(4-(6-(((1S,3aS,3bR,5aS,10aS,10bS,12aS)-10a,12a-dimethyl-1,2,3,3a,3b,4,5,5a,6,7,10,10a,10b,11,12,12a-hexadecahydrocyclopenta[5,6]naphtho[1,2-f]indazol-1-yl)oxy)hexanoyl)piperazine-1-carbonyl)-4-fluorobenzyl)phthalazin-1(2H)-one], for which the IC50 in test [1] (setting [3]) is 1 to 10 µM; at Human recombinant PARP1 (Table 9, read-out: PARP1), 0.01 to 0.1 µM.

Values taken from patent US11952349B2, “Anti-cancer nuclear hormone receptor-targeting compounds” (Nuvation Bio Inc., priority 2019, dated 2024).
